{
  "source": "patent EP4117701B1",
  "about": "“COMPOSITIONS FOR THE PREVENTION AND/OR TREATMENT OF BENIGN PROSTATIC HYPERTROPHY (BPH)” (IDI Integratori Dietetici Italiani S.r.l., priority 2020, dated 2021)",
  "key": {"in vitro": {"experiment": "in vitro", "format": "cell-based", "conditions": "human, lncap cells", "experimental": "The cytotoxic activity of the considered plant extracts was evaluated in a human tumour prostate cell line (LNCaP). […] The treatment was prolonged for 6 hours, period of time corresponding to the overall duration of the pre-treatment and of post-treatment thereto the cells were subjected for the subsequent evaluation of the anti-inflammatory activity. At the end of the incubation period, the vitality of the prostate cells was evaluated by using the assay MTS, based upon the reduction of the compound MTS tetrazolium by the vital cells to generate a form of coloured formazan, which can be quantified by measuring the absorbance at 490-500 nm thereof."}, "[1]": {"tested_on": "human prostate cell line (LNCaP)", "experiment": "Cytotoxicity of plant extracts, MTS assay, 24 hours", "format": "cell-based", "conditions": "extracts 0 to 1000 µg/mL (TEUPOL10 0 to 1500 µg/mL), Dutasteride 0 to 7.93 µg/mL", "experimental": "The cytotoxic activity of considered plant extracts was evaluated in a human prostate cell line (LNCaP). The prostate cells were treated with growing concentrations of the plant extracts (from 0 to 1000 µg/mL for the extract of B. Serrata and S. Repens, from 0 to 1500 µg/mL for TEUPOL10) and of the positive control Dutasteride (from 0 µg/mL to 7.93 µg/mL). The treatment was prolonged for 24 hours, time corresponding to the overall duration of the experiments related to PSA and to 5-α-reductase. At the end of the incubation period, the vitality of the prostate cells was evaluated by using the assay MTS, based upon the reduction of the compound MTS tetrazolium by the vital cells to generate a coloured form, which can be quantified by measuring the absorbance thereof at 490-500 nm."}},
  "data": [
    {"molecule": "O=C(O)Cc1ccccc1Nc1c(Cl)cccc1Cl", "note": "[Diclofenac]", "values": [
      {"measurement": "MCC at 6 h", "setting": "in vitro", "result": 80, "unit": "µg/mL"}
    ]},
    {"molecule": "C[C@]12C=CC(=O)N[C@@H]1CC[C@@H]1[C@@H]2CC[C@]2(C)[C@@H](C(=O)Nc3cc(C(F)(F)F)ccc3C(F)(F)F)CC[C@@H]12", "note": "[Dutasteride]", "values": [
      {"measurement": "adverse effect on vitality of the prostate cells", "setting": "[1]", "result": "No adverse effect"}
    ]}
  ]
}
